Measured values from ChEMBL document CHEMBL4507319 (2021).

Legend:
[1] = biological target: T1, Serine/threonine-protein kinase BRSK1 (Homo sapiens) (UniProt Q8TDC3); details: Compound concentration 1000.0 nM
T1 sequence (whole entry): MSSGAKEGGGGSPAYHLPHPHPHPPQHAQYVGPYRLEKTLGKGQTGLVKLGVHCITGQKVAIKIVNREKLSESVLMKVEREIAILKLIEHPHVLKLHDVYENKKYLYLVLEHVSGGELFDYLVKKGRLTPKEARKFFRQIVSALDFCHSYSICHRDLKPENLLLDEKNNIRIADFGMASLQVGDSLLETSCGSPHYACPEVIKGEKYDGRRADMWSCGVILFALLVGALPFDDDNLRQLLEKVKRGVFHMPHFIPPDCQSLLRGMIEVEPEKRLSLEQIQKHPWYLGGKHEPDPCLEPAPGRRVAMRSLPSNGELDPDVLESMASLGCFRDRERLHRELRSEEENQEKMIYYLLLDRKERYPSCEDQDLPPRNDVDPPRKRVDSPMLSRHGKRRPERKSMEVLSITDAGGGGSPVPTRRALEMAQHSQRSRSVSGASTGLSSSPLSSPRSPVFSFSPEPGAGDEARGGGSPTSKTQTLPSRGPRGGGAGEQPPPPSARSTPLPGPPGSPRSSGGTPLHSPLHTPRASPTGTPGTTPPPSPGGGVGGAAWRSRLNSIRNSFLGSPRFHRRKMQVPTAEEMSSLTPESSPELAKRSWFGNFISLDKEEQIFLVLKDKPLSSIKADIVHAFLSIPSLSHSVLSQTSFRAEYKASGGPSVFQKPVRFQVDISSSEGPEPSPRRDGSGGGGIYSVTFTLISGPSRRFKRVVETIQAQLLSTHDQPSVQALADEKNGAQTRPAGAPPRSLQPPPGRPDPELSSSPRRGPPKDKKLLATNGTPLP

[2] = biological target: Cyclin-dependent kinase-like 3 (Homo sapiens) (UniProt Q8IVW4); details: Compound concentration 1000.0 nM
[3] = biological target: T2, Serine/threonine-protein kinase Chk1 (Homo sapiens) (UniProt O14757); details: Compound concentration 1000.0 nM
T2 sequence (whole entry): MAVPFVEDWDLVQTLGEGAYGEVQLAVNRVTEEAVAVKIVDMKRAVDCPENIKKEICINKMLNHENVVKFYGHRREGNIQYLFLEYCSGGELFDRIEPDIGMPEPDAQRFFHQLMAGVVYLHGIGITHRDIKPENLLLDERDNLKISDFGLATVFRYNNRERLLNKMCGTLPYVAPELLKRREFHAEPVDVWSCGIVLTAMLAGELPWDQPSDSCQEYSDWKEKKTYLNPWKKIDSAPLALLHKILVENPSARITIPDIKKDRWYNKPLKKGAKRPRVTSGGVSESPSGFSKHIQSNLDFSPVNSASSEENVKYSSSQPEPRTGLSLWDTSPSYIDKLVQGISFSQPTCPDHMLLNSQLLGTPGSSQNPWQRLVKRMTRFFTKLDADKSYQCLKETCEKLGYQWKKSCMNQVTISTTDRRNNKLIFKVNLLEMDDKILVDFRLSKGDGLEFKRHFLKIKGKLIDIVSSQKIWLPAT

[4] = biological target: Casein kinase II subunit alpha (Homo sapiens) (UniProt P68400); details: Compound concentration 1000.0 nM
[5] = biological target: Focal adhesion kinase 1 (Homo sapiens) (UniProt Q05397); details: Compound concentration 1000.0 nM
[6] = biological target: Homeodomain-interacting protein kinase 2 (Homo sapiens) (UniProt Q9H2X6); details: Compound concentration 1000.0 nM
[7] = biological target: T3, Serine/threonine-protein kinase ICK (Homo sapiens) (UniProt Q9UPZ9); details: Compound concentration 1000.0 nM
T3 sequence (whole entry): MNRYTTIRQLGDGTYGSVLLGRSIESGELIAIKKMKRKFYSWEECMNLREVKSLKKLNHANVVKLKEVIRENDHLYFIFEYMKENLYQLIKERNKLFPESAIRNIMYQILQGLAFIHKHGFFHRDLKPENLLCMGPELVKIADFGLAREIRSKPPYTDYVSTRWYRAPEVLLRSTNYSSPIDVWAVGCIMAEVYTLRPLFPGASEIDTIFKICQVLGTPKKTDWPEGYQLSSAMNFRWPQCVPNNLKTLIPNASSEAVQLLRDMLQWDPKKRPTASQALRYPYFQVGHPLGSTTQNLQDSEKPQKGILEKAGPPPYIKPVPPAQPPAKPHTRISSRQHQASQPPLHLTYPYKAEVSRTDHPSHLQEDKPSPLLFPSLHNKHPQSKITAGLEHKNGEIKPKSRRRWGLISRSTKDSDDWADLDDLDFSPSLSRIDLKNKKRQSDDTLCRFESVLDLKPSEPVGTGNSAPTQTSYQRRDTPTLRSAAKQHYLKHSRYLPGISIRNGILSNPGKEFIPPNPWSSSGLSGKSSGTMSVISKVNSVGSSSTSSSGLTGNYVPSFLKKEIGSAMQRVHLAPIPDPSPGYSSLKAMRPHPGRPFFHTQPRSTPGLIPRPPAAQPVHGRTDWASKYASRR

[8] = biological target: Mitogen-activated protein kinase 14 (Homo sapiens) (UniProt Q16539); details: Compound concentration 1000.0 nM
[9] = biological target: Ribosomal protein S6 kinase alpha-1 (Homo sapiens, UniProt Q15418); details: Compound concentration 1000.0 nM
[10] = biological target: T4, Serine/threonine-protein kinase Sgk3 (Homo sapiens) (UniProt Q96BR1); details: Compound concentration 1000.0 nM
T4 sequence (whole entry): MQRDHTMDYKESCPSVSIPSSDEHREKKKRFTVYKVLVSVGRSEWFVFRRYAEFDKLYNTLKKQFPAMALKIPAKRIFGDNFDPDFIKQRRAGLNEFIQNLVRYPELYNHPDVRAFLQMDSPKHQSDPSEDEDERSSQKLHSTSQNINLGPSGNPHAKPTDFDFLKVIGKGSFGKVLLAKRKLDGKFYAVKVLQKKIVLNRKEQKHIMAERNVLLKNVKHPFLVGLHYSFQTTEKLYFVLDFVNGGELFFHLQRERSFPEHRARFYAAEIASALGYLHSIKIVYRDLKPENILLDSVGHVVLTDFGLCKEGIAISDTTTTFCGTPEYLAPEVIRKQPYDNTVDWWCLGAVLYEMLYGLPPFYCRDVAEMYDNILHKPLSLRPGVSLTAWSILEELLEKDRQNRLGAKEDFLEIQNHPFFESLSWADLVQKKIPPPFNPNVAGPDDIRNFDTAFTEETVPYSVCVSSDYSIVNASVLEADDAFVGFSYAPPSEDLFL

[11] = biological target: SRSF protein kinase 3 (Homo sapiens) (UniProt Q9UPE1); details: Compound concentration 1000.0 nM
[12] = biological target: BDNF/NT-3 growth factors receptor (Homo sapiens) (UniProt Q16620); details: Compound concentration 1000.0 nM
[13] = biological target: Alpha-2B adrenergic receptor (Homo sapiens) (UniProt P18089); details: Compound concentration 10.0 uM
Alpha-2B adrenergic receptor (Homo sapiens), sequence (P18089 whole entry): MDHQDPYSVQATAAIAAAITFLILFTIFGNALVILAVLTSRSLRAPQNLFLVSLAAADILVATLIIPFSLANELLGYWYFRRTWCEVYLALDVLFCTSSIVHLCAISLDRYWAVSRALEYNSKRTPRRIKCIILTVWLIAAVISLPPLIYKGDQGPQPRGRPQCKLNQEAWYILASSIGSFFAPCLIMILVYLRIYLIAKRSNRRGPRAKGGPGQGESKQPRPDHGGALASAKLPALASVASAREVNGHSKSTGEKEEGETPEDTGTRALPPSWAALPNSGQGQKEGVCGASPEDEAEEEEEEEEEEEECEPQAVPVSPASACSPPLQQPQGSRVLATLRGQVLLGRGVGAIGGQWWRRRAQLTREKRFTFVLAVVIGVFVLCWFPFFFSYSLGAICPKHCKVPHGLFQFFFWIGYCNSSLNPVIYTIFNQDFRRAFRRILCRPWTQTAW

Mitogen-activated protein kinase 14 (Homo sapiens), sequence (Q16539 whole entry): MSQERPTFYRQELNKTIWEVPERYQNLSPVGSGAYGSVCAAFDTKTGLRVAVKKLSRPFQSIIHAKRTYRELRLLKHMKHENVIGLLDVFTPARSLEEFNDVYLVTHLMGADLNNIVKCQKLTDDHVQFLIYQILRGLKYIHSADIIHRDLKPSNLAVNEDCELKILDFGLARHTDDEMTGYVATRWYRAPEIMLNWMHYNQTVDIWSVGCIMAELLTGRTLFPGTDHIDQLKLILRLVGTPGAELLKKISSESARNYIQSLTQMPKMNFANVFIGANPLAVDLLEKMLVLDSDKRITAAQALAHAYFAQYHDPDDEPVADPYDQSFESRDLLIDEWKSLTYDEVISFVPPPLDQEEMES
Cyclin-dependent kinase-like 3 (Homo sapiens), sequence (Q8IVW4 whole entry, looked up): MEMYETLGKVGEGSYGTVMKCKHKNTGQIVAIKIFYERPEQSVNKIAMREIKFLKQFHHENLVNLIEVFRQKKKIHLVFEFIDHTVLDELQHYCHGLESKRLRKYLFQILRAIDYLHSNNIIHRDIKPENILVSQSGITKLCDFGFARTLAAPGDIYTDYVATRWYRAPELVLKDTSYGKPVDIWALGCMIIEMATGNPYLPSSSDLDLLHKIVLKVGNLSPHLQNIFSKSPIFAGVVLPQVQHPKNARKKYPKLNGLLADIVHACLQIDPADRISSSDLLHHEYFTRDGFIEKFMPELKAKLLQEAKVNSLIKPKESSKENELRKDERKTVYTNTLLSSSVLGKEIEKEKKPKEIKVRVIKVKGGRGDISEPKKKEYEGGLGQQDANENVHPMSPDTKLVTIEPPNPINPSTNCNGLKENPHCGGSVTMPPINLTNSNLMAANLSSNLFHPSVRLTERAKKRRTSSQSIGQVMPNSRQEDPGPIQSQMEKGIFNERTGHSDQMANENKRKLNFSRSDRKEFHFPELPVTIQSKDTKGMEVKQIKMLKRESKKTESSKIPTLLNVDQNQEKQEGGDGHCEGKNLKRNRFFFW
Ribosomal protein S6 kinase alpha-1, sequence (Q15418 whole entry): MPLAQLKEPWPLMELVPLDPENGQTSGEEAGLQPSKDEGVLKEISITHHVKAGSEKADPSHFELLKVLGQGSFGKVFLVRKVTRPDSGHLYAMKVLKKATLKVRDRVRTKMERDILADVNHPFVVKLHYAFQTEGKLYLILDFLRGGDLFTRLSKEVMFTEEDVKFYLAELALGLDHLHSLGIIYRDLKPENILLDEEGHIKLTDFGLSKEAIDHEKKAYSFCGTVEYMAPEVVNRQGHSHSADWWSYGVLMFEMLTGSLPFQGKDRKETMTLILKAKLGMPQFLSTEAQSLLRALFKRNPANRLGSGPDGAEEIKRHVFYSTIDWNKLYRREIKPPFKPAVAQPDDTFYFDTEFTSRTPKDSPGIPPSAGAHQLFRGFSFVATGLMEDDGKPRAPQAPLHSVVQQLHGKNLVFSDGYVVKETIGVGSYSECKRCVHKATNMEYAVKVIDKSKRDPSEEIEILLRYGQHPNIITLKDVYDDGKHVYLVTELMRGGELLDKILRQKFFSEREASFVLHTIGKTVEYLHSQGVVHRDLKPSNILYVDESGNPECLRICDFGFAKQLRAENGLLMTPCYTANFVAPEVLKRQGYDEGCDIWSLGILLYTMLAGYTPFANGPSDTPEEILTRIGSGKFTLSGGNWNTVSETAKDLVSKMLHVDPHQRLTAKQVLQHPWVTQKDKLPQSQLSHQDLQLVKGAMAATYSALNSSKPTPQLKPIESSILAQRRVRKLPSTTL
Casein kinase II subunit alpha (Homo sapiens), sequence (P68400 whole entry, looked up): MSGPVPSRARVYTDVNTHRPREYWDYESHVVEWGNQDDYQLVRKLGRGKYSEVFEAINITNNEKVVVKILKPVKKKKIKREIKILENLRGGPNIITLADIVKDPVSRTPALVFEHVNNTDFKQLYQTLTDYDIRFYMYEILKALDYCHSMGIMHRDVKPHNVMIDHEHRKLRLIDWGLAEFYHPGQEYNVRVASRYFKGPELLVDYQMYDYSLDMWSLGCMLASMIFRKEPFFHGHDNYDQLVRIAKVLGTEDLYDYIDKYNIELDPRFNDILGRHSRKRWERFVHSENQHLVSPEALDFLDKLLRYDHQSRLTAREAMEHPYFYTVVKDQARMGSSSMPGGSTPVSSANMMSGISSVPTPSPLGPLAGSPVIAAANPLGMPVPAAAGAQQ
SRSF protein kinase 3 (Homo sapiens), sequence (Q9UPE1 whole entry): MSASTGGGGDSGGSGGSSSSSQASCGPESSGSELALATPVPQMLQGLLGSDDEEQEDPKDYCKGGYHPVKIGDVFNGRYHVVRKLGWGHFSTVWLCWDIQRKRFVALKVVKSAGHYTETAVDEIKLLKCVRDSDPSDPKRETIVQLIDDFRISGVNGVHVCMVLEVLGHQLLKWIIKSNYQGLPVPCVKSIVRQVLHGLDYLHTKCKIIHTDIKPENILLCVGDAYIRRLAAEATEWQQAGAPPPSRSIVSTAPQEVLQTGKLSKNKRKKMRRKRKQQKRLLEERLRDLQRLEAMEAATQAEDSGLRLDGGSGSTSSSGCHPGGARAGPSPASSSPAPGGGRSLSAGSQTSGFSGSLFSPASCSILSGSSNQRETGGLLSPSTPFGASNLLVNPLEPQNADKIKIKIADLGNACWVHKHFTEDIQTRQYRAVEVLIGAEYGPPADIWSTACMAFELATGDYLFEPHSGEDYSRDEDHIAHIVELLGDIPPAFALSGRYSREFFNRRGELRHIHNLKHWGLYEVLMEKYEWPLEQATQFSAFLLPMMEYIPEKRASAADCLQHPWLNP
Homeodomain-interacting protein kinase 2 (Homo sapiens), sequence (Q9H2X6 whole entry, looked up): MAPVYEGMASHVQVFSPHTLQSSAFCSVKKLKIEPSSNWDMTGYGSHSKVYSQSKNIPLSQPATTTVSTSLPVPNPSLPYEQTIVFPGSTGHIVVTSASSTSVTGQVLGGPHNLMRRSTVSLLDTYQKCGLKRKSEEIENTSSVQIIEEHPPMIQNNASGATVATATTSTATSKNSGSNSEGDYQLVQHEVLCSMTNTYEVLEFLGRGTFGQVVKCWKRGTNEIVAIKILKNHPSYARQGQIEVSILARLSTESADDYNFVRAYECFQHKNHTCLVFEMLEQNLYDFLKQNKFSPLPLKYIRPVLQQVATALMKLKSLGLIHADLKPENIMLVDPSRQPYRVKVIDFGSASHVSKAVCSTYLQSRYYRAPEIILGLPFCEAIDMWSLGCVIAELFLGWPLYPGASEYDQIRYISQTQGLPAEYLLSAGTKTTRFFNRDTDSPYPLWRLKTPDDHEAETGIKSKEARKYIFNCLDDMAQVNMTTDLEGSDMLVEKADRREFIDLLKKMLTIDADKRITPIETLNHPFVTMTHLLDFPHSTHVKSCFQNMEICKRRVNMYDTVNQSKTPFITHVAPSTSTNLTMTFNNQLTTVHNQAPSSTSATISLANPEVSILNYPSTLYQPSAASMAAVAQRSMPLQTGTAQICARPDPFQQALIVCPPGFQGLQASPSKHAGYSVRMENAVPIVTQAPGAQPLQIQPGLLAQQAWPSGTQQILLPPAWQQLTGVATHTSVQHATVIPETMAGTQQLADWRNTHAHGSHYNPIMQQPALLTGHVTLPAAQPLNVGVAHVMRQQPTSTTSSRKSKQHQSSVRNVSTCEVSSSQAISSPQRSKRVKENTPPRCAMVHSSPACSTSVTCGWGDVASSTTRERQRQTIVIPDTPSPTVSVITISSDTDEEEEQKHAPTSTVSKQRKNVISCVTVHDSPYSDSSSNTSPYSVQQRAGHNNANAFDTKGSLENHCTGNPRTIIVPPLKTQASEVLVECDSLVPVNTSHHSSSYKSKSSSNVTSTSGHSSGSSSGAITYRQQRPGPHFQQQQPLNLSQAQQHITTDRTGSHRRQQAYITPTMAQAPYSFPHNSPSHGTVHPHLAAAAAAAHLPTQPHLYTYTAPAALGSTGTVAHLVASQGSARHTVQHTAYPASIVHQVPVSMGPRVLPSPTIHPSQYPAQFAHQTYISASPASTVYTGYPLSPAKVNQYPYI

Row | SMILES | residual activity [1] | residual activity [2] | residual activity [3] | residual activity [4] | residual activity [5] | residual activity [6] | residual activity [7] | residual activity [8] | residual activity [9] | residual activity [10] | residual activity [11] | residual activity [12] | inhibition [13]
1 | CCc1ccccc1C(=O)Nc1n[nH]c2c(C)c(F)c(C3C(C#N)=C(C)N(C)C(C)=C3C#N)cc12 [BAY-3827] | 55% | 87% | 91% | 100% | 82% | 100% | 100% | 100% | 1.8% | 91% | 100% | 100% | 10.6%
2 | CC1=C(C#N)C(c2ccc3c(c2)c(NC(=O)c2ccccc2C)nn3C)C(C#N)=C(C)N1 [BAY-974] | 100% | 79% | 81% | 63% | 94% | 73% | 97% | 88% | 100% | 95% | 100% | 72% | 20.7%
